In the NIST ThermoML archive (doi:10.1021/acs.jced.8b00554):
± gives the expanded uncertainty stated by the source.

Conditions: Liquid, Vibrating tube method

CCCO [propan-1-ol]
Conditions | mass density [kg/m3]
313.15 K, 100 kPa | 787.65 ± 4.7
313.15 K, 1020 kPa | 788.65 ± 4.7
313.15 K, 2000 kPa | 789.51 ± 4.7
313.15 K, 3010 kPa | 790.39 ± 4.7
313.15 K, 4020 kPa | 791.23 ± 4.8
313.15 K, 5020 kPa | 792.09 ± 4.8
313.15 K, 6010 kPa | 792.93 ± 4.8
313.15 K, 7020 kPa | 793.75 ± 4.8
313.15 K, 8030 kPa | 794.57 ± 4.8
313.15 K, 9010 kPa | 795.39 ± 4.8
313.15 K, 10020 kPa | 796.2 ± 4.8
313.15 K, 11010 kPa | 796.99 ± 4.8
313.15 K, 12020 kPa | 797.79 ± 4.8
313.15 K, 13010 kPa | 798.57 ± 4.8
313.15 K, 14020 kPa | 799.35 ± 4.8
313.15 K, 15030 kPa | 800.12 ± 4.8
313.15 K, 16010 kPa | 800.88 ± 4.8
313.15 K, 17020 kPa | 801.63 ± 4.8
313.15 K, 18010 kPa | 802.39 ± 4.8
313.15 K, 19020 kPa | 803.13 ± 4.8
313.15 K, 20010 kPa | 803.87 ± 4.8
323.15 K, 100 kPa | 779.29 ± 4.7
323.15 K, 1020 kPa | 780.33 ± 4.7
323.15 K, 2020 kPa | 781.26 ± 4.7
323.15 K, 3010 kPa | 782.17 ± 4.7
323.15 K, 4030 kPa | 783.07 ± 4.7
323.15 K, 5010 kPa | 783.96 ± 4.7
323.15 K, 6010 kPa | 784.85 ± 4.7
323.15 K, 7000 kPa | 785.72 ± 4.7
323.15 K, 8010 kPa | 786.58 ± 4.7
323.15 K, 9020 kPa | 787.44 ± 4.7
323.15 K, 10030 kPa | 788.29 ± 4.7
323.15 K, 11020 kPa | 789.12 ± 4.7
323.15 K, 12010 kPa | 789.95 ± 4.7
323.15 K, 13020 kPa | 790.78 ± 4.8
323.15 K, 14030 kPa | 791.59 ± 4.8
323.15 K, 15030 kPa | 792.41 ± 4.8
323.15 K, 16000 kPa | 793.2 ± 4.8
323.15 K, 17010 kPa | 794 ± 4.8
323.15 K, 18030 kPa | 794.78 ± 4.8
323.15 K, 19030 kPa | 795.56 ± 4.8
323.15 K, 20020 kPa | 796.33 ± 4.8
333.15 K, 100 kPa | 770.58 ± 4.6
333.15 K, 1030 kPa | 771.74 ± 4.6
333.15 K, 2020 kPa | 772.72 ± 4.6
333.15 K, 3020 kPa | 773.69 ± 4.6
333.15 K, 4030 kPa | 774.64 ± 4.7
333.15 K, 5020 kPa | 775.59 ± 4.7
333.15 K, 6020 kPa | 776.52 ± 4.7
333.15 K, 7010 kPa | 777.45 ± 4.7
333.15 K, 8020 kPa | 778.36 ± 4.7
333.15 K, 9010 kPa | 779.27 ± 4.7
333.15 K, 10030 kPa | 780.16 ± 4.7
333.15 K, 11020 kPa | 781.05 ± 4.7
333.15 K, 12030 kPa | 781.93 ± 4.7
333.15 K, 13010 kPa | 782.79 ± 4.7
333.15 K, 14030 kPa | 783.65 ± 4.7
333.15 K, 15030 kPa | 784.5 ± 4.7
333.15 K, 16000 kPa | 785.34 ± 4.7
333.15 K, 17030 kPa | 786.17 ± 4.7
333.15 K, 18010 kPa | 787 ± 4.7
333.15 K, 19020 kPa | 787.81 ± 4.7
333.15 K, 20000 kPa | 788.62 ± 4.7
343.15 K, 100 kPa | 761.6 ± 4.6
343.15 K, 1010 kPa | 762.86 ± 4.6
343.15 K, 2020 kPa | 763.91 ± 4.6
343.15 K, 3000 kPa | 764.93 ± 4.6
343.15 K, 4020 kPa | 765.95 ± 4.6
343.15 K, 5020 kPa | 766.96 ± 4.6
343.15 K, 6020 kPa | 767.95 ± 4.6
343.15 K, 7030 kPa | 768.93 ± 4.6
343.15 K, 8020 kPa | 769.91 ± 4.6
343.15 K, 9000 kPa | 770.86 ± 4.6
343.15 K, 10020 kPa | 771.81 ± 4.6
343.15 K, 11030 kPa | 772.74 ± 4.6
343.15 K, 12020 kPa | 773.67 ± 4.7
343.15 K, 13010 kPa | 774.59 ± 4.7
343.15 K, 14000 kPa | 775.49 ± 4.7
343.15 K, 15010 kPa | 776.39 ± 4.7
343.15 K, 16020 kPa | 777.28 ± 4.7
343.15 K, 17020 kPa | 778.16 ± 4.7
343.15 K, 18000 kPa | 779.02 ± 4.7
343.15 K, 19020 kPa | 779.89 ± 4.7
343.15 K, 20010 kPa | 780.74 ± 4.7
353.15 K, 100 kPa | 752.39 ± 4.5
353.15 K, 1010 kPa | 753.65 ± 4.5
353.15 K, 2010 kPa | 754.76 ± 4.5
353.15 K, 2990 kPa | 755.86 ± 4.5
353.15 K, 4000 kPa | 756.96 ± 4.5
353.15 K, 5000 kPa | 758.04 ± 4.5
353.15 K, 6000 kPa | 759.1 ± 4.6
353.15 K, 7010 kPa | 760.14 ± 4.6
353.15 K, 7990 kPa | 761.16 ± 4.6
353.15 K, 8990 kPa | 762.2 ± 4.6
353.15 K, 9990 kPa | 763.21 ± 4.6
353.15 K, 11010 kPa | 764.2 ± 4.6
353.15 K, 12010 kPa | 765.19 ± 4.6
353.15 K, 13000 kPa | 766.16 ± 4.6
353.15 K, 14010 kPa | 767.13 ± 4.6
353.15 K, 15010 kPa | 768.07 ± 4.6
353.15 K, 16010 kPa | 769.01 ± 4.6
353.15 K, 17010 kPa | 769.94 ± 4.6
353.15 K, 17990 kPa | 770.86 ± 4.6
353.15 K, 18990 kPa | 771.76 ± 4.6
353.15 K, 19990 kPa | 772.67 ± 4.6
363.15 K, 100 kPa | 743.01 ± 4.5
363.15 K, 1020 kPa | 744.08 ± 4.5
363.15 K, 2030 kPa | 745.28 ± 4.5
363.15 K, 3030 kPa | 746.48 ± 4.5
363.15 K, 4020 kPa | 747.65 ± 4.5
363.15 K, 5000 kPa | 748.81 ± 4.5
363.15 K, 6020 kPa | 749.94 ± 4.5
363.15 K, 7020 kPa | 751.07 ± 4.5
363.15 K, 8010 kPa | 752.18 ± 4.5
363.15 K, 9000 kPa | 753.27 ± 4.5
363.15 K, 10030 kPa | 754.35 ± 4.5
363.15 K, 11010 kPa | 755.41 ± 4.5
363.15 K, 12010 kPa | 756.47 ± 4.5
363.15 K, 13010 kPa | 757.5 ± 4.5
363.15 K, 14000 kPa | 758.53 ± 4.6
363.15 K, 15020 kPa | 759.54 ± 4.6
363.15 K, 16010 kPa | 760.54 ± 4.6
363.15 K, 17030 kPa | 761.52 ± 4.6
363.15 K, 18010 kPa | 762.51 ± 4.6
363.15 K, 19000 kPa | 763.47 ± 4.6
363.15 K, 20020 kPa | 764.42 ± 4.6
